Among the data in PubChem BioAssay AID1259411 (Chemical Carcinogenesis Research Information System (CCRIS), 2018) are carcinogen call values, retold here.

For this data set, the system named is rodent carcinogenicity bioassays, tumor incidence. The data set can be described thus: CCRIS carcinogenicity studies. Particulars: Dose: 0, Dose: 0. The gist of the method: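 NCI-built, expert-reviewed records of carcinogenicity and related test outcomes (mutagenicity, tumor promotion/inhibition) compiled from published and report sources, historical span 1985-2011, not updated.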

Activity calls are given as the source filed them. No rule for the calls is given here.

For the compound `CN(C)c1ccc(Cc2ccc(N(C)C)cc2)cc1`, the carcinogen call (Species: MOUSE, Strain/Sex: B6C3F1/FEMALE, Route: ORAL, 1250, 2500 PPM IN DIET FOR 78 WK (STUDY DURATION: 91 WK), 1250, 2500 PPM IN DIET FOR 78 WK (STUDY DURATION: 91 WK), Tumor Site: Type of Lesion: LIVER: HEPATOCELLULAR ADENOMA OR CARCINOMA) was “active; positive”; the carcinogen call (Species: MOUSE, Strain/Sex: B6C3F1/MALE, Route: ORAL, 1250, 2500 PPM IN DIET FOR 78 WK (STUDY DURATION: 91 WK), 1250, 2500 PPM IN DIET FOR 78 WK (STUDY DURATION: 91 WK), Tumor Site: Type of Lesion: LIVER: HEPATOCELLULAR ADENOMA OR CARCINOMA) is on record as “equivocal”; the carcinogen call (Species: RAT, Strain/Sex: F344/FEMALE, Route: ORAL, 0.0375, 0.075% IN DIET FOR 59 WK (STUDY DURATION: 2 YR), 0.0375, 0.075% IN DIET FOR 59 WK (STUDY DURATION: 2 YR), Tumor Site: Type of Lesion: THYROID GLAND: FOLLICULAR CARCINOMA) is “active; positive”; the carcinogen call (Species: RAT, Strain/Sex: F344/FEMALE, Route: ORAL, 375, 750 PPM IN DIET FOR 59 WK (STUDY DURATION: 104 WK), 375, 750 PPM IN DIET FOR 59 WK (STUDY DURATION: 104 WK), Tumor Site: Type of Lesion: THYROID GLAND: FOLLICULAR CELL ADENOMA OR CARCINOMA) was “active; positive”; the carcinogen call (Species: RAT, Strain/Sex: F344/MALE, Route: ORAL, 0.0375, 0.075% IN DIET FOR 59 WK (STUDY DURATION: 2 YR), 0.0375, 0.075% IN DIET FOR 59 WK (STUDY DURATION: 2 YR), Tumor Site: Type of Lesion: THYROID GLAND: FOLLICULAR CARCINOMA) was “active; positive”; the carcinogen call (Species: RAT, Strain/Sex: F344/MALE, Route: ORAL, 375, 750 PPM IN DIET FOR 59 WK (STUDY DURATION: 104 WK), 375, 750 PPM IN DIET FOR 59 WK (STUDY DURATION: 104 WK), Tumor Site: Type of Lesion: THYROID GLAND: FOLLICULAR CELL ADENOMA OR CARCINOMA) is “active; positive”.

In the case of `O=C1CN(/N=C/c2ccc([N+](=O)[O-])o2)C(=O)N1`, the carcinogen call (Species: MOUSE, Strain/Sex: B6C3F1/FEMALE, Route: ORAL, 1300, 2500 PPM IN FEED FOR 103 WK (STUDY DURATION: 105 WK), 1300, 2500 PPM IN FEED FOR 103 WK (STUDY DURATION: 105 WK), Tumor Site: Type of Lesion: OVARY: TUBULAR ADENOMA, MIXED TUMOR (BENIGN)) is “active; positive”; the carcinogen call (Species: MOUSE, Strain/Sex: B6C3F1/MALE, Route: ORAL, 1300, 2500 PPM IN FEED FOR 103 WK (STUDY DURATION: 105 WK), 1300, 2500 PPM IN FEED FOR 103 WK (STUDY DURATION: 105 WK)) was “inactive; negative”; the carcinogen call (Species: MOUSE, Strain/Sex: BDF1/FEMALE, Route: ORAL, 0.075, 0.3% IN DIET BEGINNING AT 9 WK OF AGE AND CONTINUING FOR DURATION OF STUDY (STUDY DURATION: 24 MO), 0.075, 0.3% IN DIET BEGINNING AT 9 WK OF AGE AND CONTINUING FOR DURATION OF STUDY (STUDY DURATION: 24 MO)) is “inactive; negative”; the carcinogen call (Species: MOUSE, Strain/Sex: BDF1/MALE, Route: ORAL, 0.075, 0.3% IN DIET BEGINNING AT 9 WK OF AGE AND CONTINUING FOR DURATION OF STUDY (STUDY DURATION: 24 MO), 0.075, 0.3% IN DIET BEGINNING AT 9 WK OF AGE AND CONTINUING FOR DURATION OF STUDY (STUDY DURATION: 24 MO)) is “inactive; negative”; the carcinogen call (Species: MOUSE, Strain/Sex: ICR/MALE, FEMALE, Route: TRANSPLACENTAL, 75 UG/G ADMINISTERED SUBCUTANEOUSLY TO MOTHERS ON DAYS 13, 15 AND 17 OF GESTATION (STUDY DURATION: 33 WK), Tumor Site: Type of Lesion: LUNG: PAPILLARY ADENOMA) is “active; positive”; the carcinogen call (Species: MOUSE, Strain/Sex: SWISS/FEMALE, Route: ORAL, 0.03% IN DIET FOR 441 D, THEN 0.04% IN DIET FOR DURATION OF STUDY (TOTAL AVERAGE DOSE: 58.76 MG/KG) (STUDY DURATION:, 0.03% IN DIET FOR 441 D, THEN 0.04% IN DIET FOR DURATION OF STUDY (TOTAL AVERAGE DOSE: 58.76 MG/KG) (STUDY DURATION:) was “inactive; negative”. The carcinogen call by setting is: (Species: MOUSE, Strain/Sex: SWISS/FEMALE, Route: ORAL, 0.06% IN DIET FOR 441 D, THEN 0.075% IN DIET FOR DURATION OF STUDY (TOTAL AVERAGE DOSE: 115.59 MG/KG) (STUDY DURATION, 0.06% IN DIET FOR 441 D, THEN 0.075% IN DIET FOR DURATION OF STUDY (TOTAL AVERAGE DOSE: 115.59 MG/KG) (STUDY DURATION) “inactive; negative”; (Species: MOUSE, Strain/Sex: SWISS/FEMALE, Route: ORAL, 0.13% IN DIET FOR 441 D, THEN 0.155% IN DIET FOR DURATION OF STUDY (TOTAL AVERAGE DOSE: 224.07 MG/KG) (STUDY DURATION, 0.13% IN DIET FOR 441 D, THEN 0.155% IN DIET FOR DURATION OF STUDY (TOTAL AVERAGE DOSE: 224.07 MG/KG) (STUDY DURATION) “inactive; negative”; (Species: MOUSE, Strain/Sex: SWISS/MALE, Route: ORAL, 0.03% IN DIET FOR 441 D, THEN 0.04% IN DIET FOR DURATION OF STUDY (TOTAL AVERAGE DOSE: 43.63 MG/KG) (STUDY DURATION:, 0.03% IN DIET FOR 441 D, THEN 0.04% IN DIET FOR DURATION OF STUDY (TOTAL AVERAGE DOSE: 43.63 MG/KG) (STUDY DURATION:) “inactive; negative”; (Species: MOUSE, Strain/Sex: SWISS/MALE, Route: ORAL, 0.06% IN DIET FOR 441 D, THEN 0.075% IN DIET FOR DURATION OF STUDY (TOTAL AVERAGE DOSE: 83.59 MG/KG) (STUDY DURATION:, 0.06% IN DIET FOR 441 D, THEN 0.075% IN DIET FOR DURATION OF STUDY (TOTAL AVERAGE DOSE: 83.59 MG/KG) (STUDY DURATION:) “inactive; negative”; (Species: MOUSE, Strain/Sex: SWISS/MALE, Route: ORAL, 0.13% IN DIET FOR 441 D, THEN 0.155% IN DIET FOR DURATION OF STUDY (TOTAL AVERAGE DOSE: 181.14 MG/KG) (STUDY DURATION, 0.13% IN DIET FOR 441 D, THEN 0.155% IN DIET FOR DURATION OF STUDY (TOTAL AVERAGE DOSE: 181.14 MG/KG) (STUDY DURATION, Tumor Site: Type of Lesion: HEMATOPOIETIC SYSTEM: MALIGNANT LYMPHOMA) “active; positive”; (Species: RAT, Strain/Sex: F344/FEMALE, Route: ORAL, 600, 1300 PPM IN FEED FOR 103 WK (STUDY DURATION: 105 WK), 600, 1300 PPM IN FEED FOR 103 WK (STUDY DURATION: 105 WK)) “inactive; negative”. Moreover, the carcinogen call is “inactive; negative” (Species: RAT, Strain/Sex: F344/MALE, Route: ORAL, 0.187% IN DIET FOR 104 WK (STUDY DURATION: 104 WK)); “active; positive” (Species: RAT, Strain/Sex: F344/MALE, Route: ORAL, 1300, 2500 PPM IN FEED FOR 103 WK (STUDY DURATION: 105 WK), 1300, 2500 PPM IN FEED FOR 103 WK (STUDY DURATION: 105 WK), Tumor Site: Type of Lesion: KIDNEY: TUBULAR ADENOMA OR CARCINOMA, SUBCUTANEOUS TISSUE: FIBROMA, FIBROMA OR FIBROSARCOMA); “active; positive” (Species: RAT, Strain/Sex: SPRAGUE-DAWLEY/FEMALE, Route: ORAL, 0.188% IN DIET FOR 2 YR (STUDY DURATION: 2 YR), Tumor Site: Type of Lesion: MAMMARY GLAND: FIBROADENOMA); “inactive; negative” (Species: RAT, Strain/Sex: STRAIN-CD/FEMALE, Route: ORAL, 12, 24, 48 MG/KG BW IN DIET FOR 24 MO (STUDY DURATION: 24 MO), 12, 24, 48 MG/KG BW IN DIET FOR 24 MO (STUDY DURATION: 24 MO)); “inactive; negative” (Species: RAT, Strain/Sex: STRAIN-CD/MALE, Route: ORAL, 12, 24, 48 MG/KG BW IN DIET FOR 24 MO (STUDY DURATION: 24 MO), 12, 24, 48 MG/KG BW IN DIET FOR 24 MO (STUDY DURATION: 24 MO)).
